Experimental data from patent publication US20050239873A1 (priority 1999, published 2005).
Read-outs that look alike come from different tables or passages of the source.

Tests used:
[1] = system: RPMI-8226 myeloma cell line; assay: O2 consumption with a Clark electrode; assay type: cell-based, human
Protocol: (§1) Respiratory rates of both cell lines were maintained through repeated additions of 10 μM 2-OMeA, to a final concentration of 90 μM. […] Real-time glucose consumption and lactate production by TAMH cells grown on microcarrier beads was monitored using a novel microsequential injection-lab on valve (μSI-LOV) system (Schulz et al., Analyst 127:1293-1298, 2002). […] Since 2-OMeA has no effect on cellular respiration at these concentrations, 2-OMeA induced aerobic glycolysis in TAMH cells. The glycolytic response to 2-OMeA was proportional to cellular BCl-xL protein expression.

[2] = system: TAMH hepatocyte cell line; assay: O2 consumption with a Clark electrode; assay type: cell-based, murine
Protocol: as §1

[3] = system: RPMI-8226 cells; conditions: suboptimal combinations with etoposide or melphalan
Protocol: Current anti-myeloma regimens incorporate multiple drugs with different mechanisms of action. RPMI-8226 cells were treated with 2-OMeA1 in combination with standard chemotherapeutic agents used in myeloma treatment: etoposide, melphalan, or daunorubicin (Sonneveld and Segeren, Eur. J. Cancer 39:9-18, 2003).

[4] = Binding to plasma proteins (ultrafiltration); assay type: in vitro ADME, mouse; conditions: mouse, plasma, presence of NaF+EDTA, read-out: Protein binding, Mouse
Protocol: (§2) Solutions of 2-OMe antimycin A3 were diluted with plasma (dog or human) containing NaF+EDTA to final concentrations of 1.0 or 0.2 μg/ml. Controls were diluted with water to the same final concentrations. These preparations were incubated at 37° C. for 20 min, at which time portions were taken and placed in the sample reservoirs of Amicon Centrifree® ultrafiltration systems (Millipore Co., Bedford, Mass.). At 37° C., the filter systems were centrifuged until the reservoirs were dry. From each filtrate, portions were taken for analysis by HPLC. The amounts present were designated as “free drug” (F). The concentrations of the unfiltered solutions were also determined by triplicate analyses. This amount represented the “total drug” concentration (T). The percentage of 2-OMe antimycin A3 bound to plasma proteins was calculated by the following formula: % bound=((T−F)/T)×100

[5] = system: TABX2S cells (over-expressing Bcl-xL); assay: cells
Excerpt: Briefly, a DNA fragment encoding the full-length mouse BCl-xL cDNA was isolated from the plasmid PBS.BCL-xL (Tzung et al., Am. J. Path. 150:1985-1995, 1997, incorporated herein by reference in its entirety) by digestion with the restriction endonuclease EcoRI. This EcoRI fragment was cloned into the EcoRI site of the mammalian expression vector pSFFV (Fuhlbrigge et al., Proc. Nat. Acad. Sci. USA 85:5649-5653, 1988) in both sense and antisense orientations, to form expression plasmids pSFFV.Bcl-xL(sense) or pSFFV.Bcl-xL(antisense), respectively. The tumorigenic murine hepatocyte cell line TAMH was transfected by lipofection (Lipofectamine, Life Technologies, Rockville, Md., according to the manufacturer's recommendations) with the plasmids pSFFV.neo (the control), pSFFV.Bcl-xL(sense) or pSFFV.Bcl-xL(antisense). […] Transfectants were selected for the acquisition of neomycin resistance by growing cells in the presence of 750 μg/ml of G418. Bulk transfectants were cloned by limiting dilution and individual clones were screened by immunoblot analysis to determine the level of BCl-xL protein expression as described below.
Selected transfectants were then tested for whole cell sensitivity to several apoptotic agents. Transfected cells were cultured to reach approximately 80% confluency prior to plating an equal number of cells from selected clones on 12-well tissue culture plates. The transplanted cells were treated with the following apoptotic agents: 5 μM doxorubicin for 48 hours; 5 μM cisplatin for 48 hours; or with 200 U/ml tumor necrosis factor (TNF) plus 1 μg/ml actinomycin D for 18 hours. Cell viability was determined by trypan blue dye exclusion. The percentage of viable cells was calculated by the number of viable cells (treated with a particular apoptogenic agent) divided by the number in the control group (untreated).
TABX2S cells and TABX1A cells were also examined for the effects of various mitochondrial inhibitors. […] Azide was diluted from an aqueous stock solution. […] Controls received an equivalent concentration of diluent. At various time points after drug treatment, cells were trypsinized, and cell viability was determined by trypan blue dye exclusion. The number of viable cells were counted and normalized to control group (i.e., % control=number of viable cells (treated group)/number of viable cells (control group)×100).

[6] = Binding to plasma proteins (ultrafiltration); assay type: in vitro ADME, dog; conditions: dog, plasma, presence of NaF+EDTA, read-out: Protein binding, Dog
Protocol: as §2
Similar experiments were performed for 2-OMe antimycin A3 in dog or rat plasma in the absence of NaF/EDTA.

[7] = system: mitochondria from TABX2S cells; assay: Swelling of isolated mitochondria (absorbance at 540 nm); parameters: species or system murine; conditions: 2 μg/ml
Excerpt: Mitochondrial PT is caused by opening of a large conductance channel in the inner mitochondrial membrane. Opening of a large conductance channel allows free distribution of solutes of less than 1,500 Da and results in dissipation of the proton gradient and osmotic swelling of mitochondria due to the higher solute concentration in the matrix. In isolated mitochondria, the colloid osmotic swelling associated with PT pore opening can be followed by measuring the optical density change at 540 nm (Kantrow et al., Biochem. Biophy. Res. Comm. 232:669-671, 1997).
Briefly, mitochondria were isolated from TABX2S cultured cells by a modification of the procedure of Maltese et al. (J. Biol. Chem. 260:11524-11529, 1985). Typically, 0.5 to 1×10^8 cells were harvested and washed once with homogenization buffer (250 mM sucrose, 10 mM Tris-HCl, 1 mM EDTA and 1 mg/ml BSA, (pH 7.4)). The cell suspension was exposed to nitrogen at 250 psi for 30 minutes in a “cell disruption bomb” (Parr, Moline, Ill.) or homogenized in a Dounce homogenizer with a loose-fitting pestle until >90% of cells were broken. The homogenate was centrifuged at 800×g for 10 minutes. The supernatant was removed and centrifuged at 10,000×g for 10 minutes at 4° C. The pellet was resuspended and again centrifuged at 10,000×g for 10 minutes. […]

[8] = repeated additions of 10 μM to a final concentration of 90 μM

For 2-methoxy antimycin A [2-OMeA], which respiratory rate [1, 8] is on record?
The respiratory rate was “maintained”.

What about the respiratory rate [2, 8] of the same compound?
Its respiratory rate is “maintained”.

With `CCCCCC[C@H]1C(=O)O[C@H](C)[C@H](NC(=O)c2cccc(NC=O)c2OC)C(=O)O[C@@H](C)[C@@H]1OC(=O)CC(C)C` [2-OMeA1, 2-methoxy antimycin A1] as the compound, how does the killing in combination [3] read?
Its killing in combination is “Supra-additive killing”.

With `CCCC[C@H]1C(=O)OC(C)[C@H](NC(=O)c2cccc(NC=O)c2OC)C(=O)O[C@@H](C)C1OC(=O)CC(C)C` (some centres unmarked) [2-OMeA3, Antimycin A3 methyl ether] as the compound, how does the fraction unbound at 20 min, 1000 ng/ml [4] read?
Its fraction unbound at 20 min, 1000 ng/ml is less than 0.01.

And the “cytotoxicity for cells over-expressing Bcl-xL vs control cells” value ([5]; TABX2S vs TAMH.neo and TABX1A)?
The value was “selective cytotoxicity”.

And the fraction unbound at 20 min, 1000 ng/ml [6]?
The fraction unbound at 20 min, 1000 ng/ml was less than 0.01.

For antimycin A, which dampening of respiration ([1]; 10 μM) is on record?
The dampening of respiration was greater than 90%.

What about the survival ([5]; 2 μg/ml, supplemented with fructose, six hours) of the same compound?
The survival was 33%.

And the “time until cell death readily apparent” value ([5]; after addition to the cell culture)?
Its value is no more than 2 h.

What about the dampening of respiration ([2]; 10 μM) of the same compound?
Its dampening of respiration is greater than 90%.

And the mitochondrial swelling [7]?
Its mitochondrial swelling is “caused mitochondrial swelling”.
